Source: PubChem BioAssay AID588385 (NMMLSC, 2011)
The source made the active and inactive calls.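 The calls were made as follows: active = EC50 at most 10 µM,% response shifting 30 points or more across doses, valid curve fit; inactive = the rest.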

Molecular target: Cell division control protein 42 homolog (Homo sapiens) (UniProt P60953)
Experiment: wild-type Cdc42 fluorescent nucleotide binding blockers – biochemical, wildtype, bead multiplex, flow cytometry, round 1, SAR follow-up (AID 588385)
Settings: GST-Cdc42 wt beads, Bodipy-GTP binding; for % response (lower = inhibition): at 100 µM (top of the series)

Cell division control protein 42 homolog (Homo sapiens), sequence (P60953 whole entry, looked up): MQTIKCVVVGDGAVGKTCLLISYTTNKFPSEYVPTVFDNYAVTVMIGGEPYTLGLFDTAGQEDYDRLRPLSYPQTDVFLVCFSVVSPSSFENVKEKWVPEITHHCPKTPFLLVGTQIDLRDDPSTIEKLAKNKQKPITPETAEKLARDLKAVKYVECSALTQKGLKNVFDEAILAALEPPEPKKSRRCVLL

SMILES	EC50 [µM]	% response (lower = inhibition)
COc1cccc(C(=O)NC(=S)Nc2sc3c(c2C(=O)O)CC(C)(C)OC3)c1	0.082	
CN1CCc2c(sc3nc(Nc4ccc(F)cc4)oc(=O)c23)C1		inactive
CC(C)(C)OC(=O)c1c(NC(=S)NC(=O)c2ccccc2)sc2c1CCOC2		inactive
Cc1ccc(NC(=O)Nc2sc3c(c2C(=O)O)CCN(C)C3)cc1		inactive
CC1(C)Cc2c(sc(NC(=O)NC(=O)c3ccccc3)c2C(=O)O)CO1		inactive
CC1(C)Cc2c(sc(NC(=S)NC(=O)c3cccc(F)c3)c2C(=O)O)CO1	0.319	
CCOC(=O)c1c(NC(=O)Nc2ccc(F)cc2)sc2c1CCN(C)C2		inactive
Cc1ccc(Nc2nc3sc4c(c3c(=O)o2)CCN(C)C4)cc1		inactive
COC(=O)c1c(NC(=S)NC(=O)c2ccccc2)sc2c1CC(C)(C)OC2		inactive
COc1ccc(C(=O)NC(=S)Nc2sc3c(c2C(=O)O)CC(C)(C)OC3)cc1	0.501	
CC1(C)Cc2c(sc(NC(=S)NC(=O)c3ccc(Br)cc3)c2C(=O)O)CO1	0.452	
CC1(C)CCc2sc(NC(=S)NC(=O)c3ccccc3)c(C(=O)O)c2C1	0.168	
CC1(C)Cc2c(sc(NC(=S)NC(=O)c3ccccc3Br)c2C(=O)O)CO1	0.091	
CC1(C)Cc2c(sc(NC(=S)NC(=O)c3cccc(Br)c3)c2C(=O)O)CO1		inactive
CN1CCc2c(sc(NC(=O)Nc3ccc(F)cc3)c2C(=O)O)C1		inactive
CC1Cc2c(sc(NC(=S)NC(=O)c3ccccc3)c2C(=O)O)CO1 (stereo unspecified)	0.405	
CCOC(=O)c1c(NC(=S)Nc2ccccc2)sc2c1CC(C)(C)OC2		inactive
CCOC(=O)c1c(N)sc2ccccc12		inactive
CC1(C)Cc2c(sc(NC(=O)Cc3ccccc3)c2C(=O)O)CO1		inactive
CCOC(=O)c1c(NC(=S)NC(=O)c2ccccc2)sc2ccccc12		inactive
CC1(C)Cc2c(sc(NC(=S)NC(=O)c3ccccc3F)c2C(=O)O)CO1	0.08	
CC1(C)Cc2c(sc(NC(=S)Nc3ccccc3)c2C(=O)O)CO1		inactive
O=C(NC(=S)Nc1sc2c(c1C(=O)O)CCOC2)c1ccccc1	0.04	
CCOC(=O)c1c(NC(=O)Nc2ccc(C)cc2)sc2c1CCN(C)C2		inactive
CCOC(=O)c1c(NC(=O)NC(C)(C)C)sc2c1CCN(C)C2		inactive
COC(=O)c1c(N)sc2c1CC(C)(C)OC2		inactive
